Results reported in patent US20200165572A1, “ENGINEERED SUBSTRATES FOR HIGH-THROUGHPUT GENERATION OF 3D MODELS OF TUMOR DORMANCY, RELAPSE AND MICROMETASTASES FOR PHENOTYPE SPECIFIC DRUG DISCOVERY AND DEVELOPMENT” (Arizona Board of Regents on behalf of Arizona State …, priority 2015, published 2020).
“Also recorded” adds a separate entry of the source. Read-outs that look alike come from different tables or passages of the source. Peptide text beside a SMILES is read from it. * marks the point of attachment. Cbz = O=C(OCc1ccccc1)*; CH2F = FC*

Columns and labels:
dormant T24 3DTMs [1] = details: for effect of pan-caspase inhibition on thapsigargin-bortezomib induced cell death: dormant T24 spheroids
Protocol: (§1) Different concentrations (12.5, 25, 50 and 100 μM) of the anticancer drugs docetaxel, (10-40 μM) mitoxantrone, or (250-500 μM) thioTEPA were added to 3DTMs formed after 5-7 days of initial cell seeding on Amikagel. Drugs were added to 3DTMs of T24 cells co-cultured with NIH3T3 murine fibroblasts on day 5, but added to 3DTMs of T24 cells alone on day 7 due to the different times required for their formation After 96 hours of drug exposure, 3DTMs were disassembled using 50 μl of 5 mg/ml collagenase for 20 minutes to allow disassembly for co-culture spheroids, and cell viability was assessed by Live/Dead® staining followed by flow cytometry. 3DTM viability was also measured using MTT/XTT assay as described previously [28]. […] A calcium concentration of 5 mM was used with calcimycin ionophore of different concentrations (0.1, 0.5, 1, 5 and 10 μM) were used to induce cell death. Calcium liposomes were also added at a concentration of 175 μM to the dormant cells.
(§2) Viability of 3DTMs was also determined using the Live-Dead® (Calcein AM-Ethidium homodimer) staining assay. Fresh serum free DMEM media, containing a final concentration of 1 μM of calcein AM and 2 μM of ethidium homodimer-1 (EthD-1), was added to the 3DTMs, and fluorescence imaging was carried out using a Zeiss fluorescence microscope after incubating the reagents for 20 minutes. Green fluorescence emission of calcein-AM inside the live cells was detected using 38 HE filter set (Excitation: 470/40; Emission: 525/50) and red fluorescence of nucleic acid bound-EthD-1 was detected using a 43 HE filter set (Excitation: 550/25; Emission: 605/70). The extent of red and green fluorescence were indicative of the extent of viable and dead cells, respectively, in the 3DTM.
(§3) To quantify the percent dead cells using flow cytometer following drug treatment, 3DTMs were disassembled using collagenase as described previously (whenever necessary). Disassembled cells were suspended in 1×PBS containing a final concentration of 1 μM of Calcein AM and 2 μM of Ethidium Homodimer-1 (EthD-1). After incubating for 20 minutes, fluorescence images were collected as described in previous sections. Cell viability was further quantified using flow cytometry on the same sample using BD FACSAria™ III. Red fluorescence of EthD-1 was detected using a 43 HE filter set (Excitation: 550/25; Emission: 605/70).

T24 cells in 2D culture [2] = test: cells; type: cell-based; details: Homo sapiens, T-24, 96 h, read-out: LC50
Protocol: Cell death (%) after exposure of 5000 T24 cells to docetaxel for 96 hours after 2D cell culture measured by using MTT assay (circles).

T24 bladder cancer cells = test: Cell cycle analysis of T24 3DTMs; type: cell-based, human
Protocol: Following five days of incubation on AM3 Amikagels, 3DTMs of T24 cells with NIH3T3 murine fibroblast cells were harvested for cell cycle analysis. Four or five individual 3DTMs of T24 cells alone or UMUC3 cells alone were harvested on the 7th day after seeding on Amikagels, collected in an eppendorf tube. 50 μl of 5 mg/ml collagenase was added to 3DTMs prepared using fibroblast helper cells for 30 minutes at 37° C. in order to facilitate their disassembly by gentle pipetteing. Single cell 3DTMs were disassembled using manual pipetting. Disassembled 3DTM cells were then centrifuged at 200 r.c.f. in order to collect the cell pellet. The pellet was resuspended in a solution of 1% v/v 1× Triton-X, 5% (v/v) fetal bovine serum (FBS), 50 μg/mL propidium iodide, and 0.006-0.01 units/mL ribonuclease A. After incubation for 30 minutes on ice, cells were analyzed for their cell cycle profiles using flow cytometry; the propidum iodide (PI) signal was detected using an excitation at 535 nm and emission at 617 nm. Voltages of the FL2-A, SSC and FSC channels were adjusted in order to obtain best representative peaks for alignment of 2n (diploidy—G0/G1) peak to 200 intensity units during flow cytometry. FL2A (FL2-Area) provides the information regarding the pulse area of the emitted fluorescence signal (total cell fluorescence) whereas […] light from the sample. FSC is a measure of diffracted light from the sample proportional to cell surface area or size and SSC is proportional to cell granularity or internal complexity.

dormant T24 3DTMs [3] = test: Escape from dormancy after transfer of T24 3DTMs from AM3 to AM1 Amikagel; type: cell-based, human; details: for microcolony formation: 100 μM pre-treatment, 15 days after transfer to AM1
Protocol: T24 3DTMs were first formed on AM3 Amikagels, and transferred to AM1 Amikagels on the seventh day following initial cell seeding, in order to investigate the role of chemo-mechanical properties of Amikagels on 3DTM fate, dormancy and escape from dormancy. Upon transfer, 3DTMs were monitored for cell spreading and motility on the gel for an additional 7 days. After 7 days, cell cycle analysis was carried out on the all 3DTMs as described in the previous sections.
Long-term experiments were also carried out where 3DTMs were continuously monitored for 15 days after their tranfer from AM3 gel to AM1 gel. In order to study the effect of drug treatment, T24 3DTMs were first treated with 0-100 μM docetaxel for 96 hours after 7 days of initial seeding of cells on AM3 gel. After 96 hours of this drug treatment, the 3DTMs were transferred to AM1 gel to study how different chemo-mechanical properties influenced escape from dormancy. Similar studies were also performed using ROCK inhibitor Y-27632 (20 μM).

NIH3T3-T24 3DTMs = test: Drug efficacy on NIH3T3-T24 3DTM viability; type: cell-based, human, murine
Protocol: After three important tumor phenotypes were captured on Amikagels, we used Amikagel-3DTM platform for high throughput drug screens against those specific phenotypes. T24 (alone), and NIH3T3-T24 3DTMs were exposed to different doses of the DNA-damaging drug, mitoxantrone (31) or the microtubule-stabilizing drug, docetaxel for 96 hours (32). Co-culture 3DTMs were treated with collagenase to allow their disassembly before cell-viability measurement. It was noticed that collagenase treatment enabled very easy diassembly of the co-culture 3DTMs, supporting our previous finding of ECM production.

dormant 3DTMs = test: Intracellular calcium imaging; type: cell-based, human; details: 3-hour treatment
Protocol: Dormant 3DTMs grown on AM3 Amikagels were treated with calcimycin (0.5 and 5 μM) with calcium (5 mM) and calcium liposomes (175 μM) for 3 hours (3 dormant 3DTMs each). Following 3 hours, the 3DTMs were disassembled using rapid pipetting and cells were collected by centrifugation. The cells were washed with 1×PBS and resuspended in 50 μL cell culture media+50 μL Fluo-4 dye solution (prepared as per vendor's recommendation). After incubation for 60 minutes, the cells were imaged at excitation: 494 nm, emission: 516 nm. Green color fluorescence was used as an indicator of intracellular calcium concentration. Intracellular calcium fluorescence was quantified using imageJ.

CHOP = CHOP expression by western blotting; type: cell-based, human; details: calcimycin 0.5-μM
Protocol: […] The lysates were then sonicated thrice for 10-15 seconds on ice and collected by centrifugation (16,000 rpm, 20 minutes, 4° C.). Supernatants containing the whole cell protein were stored at −20° C. for subsequent use.
BCA assay was used to quantify the total protein content of the cell lysates. Equivalent quantities of whole cell proteins (4 μg) were combined with 2× Laemmli buffer containing 5% β-mercaptoethanol, and were heat denatured for 5 minutes at 95° C. Equal amounts of protein (4 μg) were then loaded into to the wells of pre-cast gels and run for 35 minutes at 200 V in running buffer (25 mM Tris, […], and 0.1% SDS, pH=8.3). The proteins were transferred to a methanol-activated Hybond PVDF membrane for 30 minutes at 20 V in the transfer buffer (25 mM Tris, 190 mM glycine, and 20% methanol, pH=8.3). The Hybond PVDF membrane was rinsed with 1×PBST and blocked with 3% blocking buffer 3× for 5 minutes each. The membrane was then incubated with the primary antibody for 12 hours at 4° C. (1:1000 CHOP D46F1 Rabbit mAb primary antibody) and (1:5000 f-actin Rabbit Ab primary antibody). […]
Area of the proteins actin and CHOP on the […] membranes were measured using image-J software. The CHOP proteins from treatment samples were then normalized to their actin content and expressed which was further expressed as a percentage of the live control.

dormant T24 3DTMs [4] = test: cells; details: Homo sapiens, 24 h, read-out: LC50
Protocol: as §1, §2, §3

T24 cells in 2D culture [5] = details: cited from earlier work

With `CC(=O)O[C@@]12CO[C@@H]1C[C@H](O)[C@@]1(C)C(=O)[C@H](O)C3=C(C)[C@@H](OC(=O)[C@H](O)[C@@H](NC(=O)OC(C)(C)C)c4ccccc4)C[C@@](O)([C@@H](OC(=O)c4ccccc4)[C@H]21)C3(C)C` [docetaxel] the cell death (dormant T24 3DTMs [1]; 100 μM, 96 hours, compared to live control) was about 10%, the “effect on cell viability of T24 3DTMs” value (dormant T24 3DTMs [1]; different doses, 96 hours of exposure, listed as Docetaxel) was “did not have any impact on the cell viability” and the CC50 (T24 cells in 2D culture [2]) was 10 µM. The “cells in G2/M phase of treated dormant T24 3DTMs” value (T24 bladder cancer cells; drug-treated dormant T24 3DTMs) was “did not change the number of cells in G2/M phase”, the “cells in pre G0/G1 phase of treated dormant T24 3DTMs” value (T24 bladder cancer cells; drug-treated dormant T24 3DTMs) was “increase in the number of cells in the pre G0/G1 phase” and the “cell escape from mother 3DTM” value (dormant T24 3DTMs [3]; 12.5 μM-100 μM for 96 hours on AM3, then transfer to AM1) was “significantly reduced the number of cells escaping; also recorded: significantly lesser number of cells escaped”. The microcolony formation (dormant T24 3DTMs [3]) was “drastically reduced” and the microcolony formation (dormant T24 3DTMs [3]; listed as Docetaxel) was “inhibited microcolony formation”.
For `COC(=O)C[C@H](NC(=O)[C@H](C)NC(=O)[C@@H](NC(=O)OCc1ccccc1)C(C)C)C(=O)CF` [zVAD-fmk] (Cbz-Val-Ala-Asp(OMe)-CH2F), the “effect of pan-caspase inhibition on calcimycin-induced death” value (dormant T24 3DTMs [1]; 24-hour, 10-μM or 5-μM calcimycin, 5 mM calcium, 5-μM zVAD-fmk) was “did not rescue”, the “effect of pan-caspase inhibition on thapsigargin-bortezomib induced cell death” value (dormant T24 3DTMs [1]; 96 hours) was “reversed” and the “effect of pan-caspase inhibition on thapsigargin-bortezomib induced cell death” value (dormant T24 3DTMs [1]; 96 hours, listed as z-VAD-fmk) was “significantly rescued”.
For `C/C=C(/C)C(=O)O[C@H]1C(C)=C2[C@H]([C@@H]1OC(=O)CCCCCCC)[C@@](C)(OC(C)=O)C[C@H](OC(=O)CCC)[C@@]1(O)[C@H]2OC(=O)[C@@]1(C)O` [thapsigargin], the cell death (dormant T24 3DTMs [1]; single agent, 15-μM, 96 hour treatment) was 50%.
With `S=P(N1CC1)(N1CC1)N1CC1` [ThioTEPA] the “response of NIH3T3-T24 3DTMs” value (NIH3T3-T24 3DTMs; up to a concentration as high as 500 μM) was “resistant”.
With `[Ca+2].[Cl-].[Cl-]` [calcium, calcium chloride] the “intracellular calcium fluorescence compared to DMSO control” value (dormant 3DTMs) was “significantly higher” and the “impact on dormant cell viability” value (dormant T24 3DTMs [1]; free calcium in cell culture media 40 mM, 96 hours) was “minimal impact on dormant cell viability”.
For `C[C@@H](N)[C@H]1CC[C@H](C(=O)Nc2ccncc2)CC1` [Amikagel Y-27632, Y-27632], the “cell cycle profile of dormant cells on AM3 gels” value (T24 bladder cancer cells; 20-μM, 96 hours) was “did not observe any changes in the cell cycle profile” and the “cell escape from mother spheroid” value (dormant T24 3DTMs [3]; 20-μM for 96 hours on AM3 gel, then transfer to AM1 gel) was “increase in the number of cells escape”.
In the case of `CNc1ccc2oc(C[C@H]3O[C@@]4(CC[C@H]3C)O[C@H]([C@H](C)C(=O)c3ccc[nH]3)[C@H](C)C[C@H]4C)nc2c1C(=O)O` [calcimycin], the “intracellular calcium fluorescence compared to DMSO control” value (dormant 3DTMs) is reported as “significantly higher”, the “cell death dose response” value (dormant T24 3DTMs [1]; 24-hour time point) is reported as “concentration dependent cell death” and the CHOP protein expression (CHOP) is reported as “No CHOP protein expression”. For the same compound, the CC50 (dormant T24 3DTMs [4]) was about 10 µM.
In the case of `O=C1c2c(O)ccc(O)c2C(=O)c2c(NCCNCCO)ccc(NCCNCCO)c21` [mitoxantrone], the “response of NIH3T3-T24 3DTMs” value (NIH3T3-T24 3DTMs; doses as high as 80 μM, 96 hours) is listed as “resistant” and the CC50 (T24 cells in 2D culture [5]) is listed as about 9 µM.
